This passage reports IC50 and MIC results from US12692253B2, “Antimicrobial compounds and methods” (Curza Global, LLC, priority 2019, dated 2026).

The term MIC denotes the least concentration at which growth counts as inhibited.

The subject of assay [1] is E. coli S30 extract (bacterial protein synthesis). The assay is described as follows: E. coli S30 extract coupled transcription-translation luciferase assay (inhibition of bacterial protein synthesis). The assay is classed as biochemical. Particulars: class by IC50 or % inhibition @ 1 μM, read-out: S30 IC50 (μM/% inhib.). The method, then: E. coli S30 extract: Inhibition of bacterial protein synthesis was determined using the E. coli S30 Extract System for Circular DNA (Promega catalog #L-2010) and Luciferase Assay Reagent (Promega catalog #E1500) with slight modifications to a published protocol. Fyfe, C., Sutcliffe, J. A. and Grossman, T. H. (2012) “Development and characterization of a Pseudomonas aeruginosa in vitro coupled transcription-translation assay system for evaluation of translation inhibitors” J. Microbiol. Methods 90(3), 256-261.
Compounds were serial diluted in 0.5 mL microcentrifuge tubes by mixing and transferring 50 μL from the highest concentration to 50 μL of water, mixing and transferring 50 μL of this 2-fold dilution to 50 μL of water. This mixing and transferring was repeated so that there are a total of 8 tubes with serial dilutions of compound at 10× the desired screening concentration that are ultimately diluted to 1× by the addition of S30 luciferase synthesis mixture. Serial dilutions of compounds were added (2 μL) to wells in a black round bottom 96-well plate. Water (2 μL) was used as a “no inhibitor” control in 4 wells/plate. No DNA control reaction mixture (20 μL; see below) was used as a control in 4 wells/plate for background luminescence. S30 luciferase synthesis mixture (18 μL; see below) was added to wells with compounds or water mixture and incubated at 37° C. for 1 hour. Reactions were stopped by transferring to 4° C. refrigerator for 5 minutes then 25 μL of luciferase activity mix was added. Luminescence was measured using a BioTek Synergy HTX plate reader. % Inhibition was determined relative to no inhibitor controls. • S30 luciferase synthesis mixture: • 445 μL S30 extract, circular • 712 μL S30 Premix without amino acids • 4.45 μL pBESTluc™ DNA (1 μg/μL) • 78 μL complete amino acid mixture • 267 μL water • No DNA control: • 20 μL S30 extract, circular • 32 μL S30 Premix without amino acids • 7 μL complete amino acid mixture • 21 μL water Rabbit Reticulocyte lysate

Assay [2] has as its target Rabbit Reticulocyte Lysate (eukaryotic protein synthesis). Put plainly: Rabbit reticulocyte lysate luciferase assay (inhibition of eukaryotic protein synthesis). In kind it is biochemical. Particulars: class by IC50 or % inhibition @ 1 μM, read-out: Rabbit reticulocyte IC50 (μM/% inhib.). Here is the method: Inhibition of eukaryotic protein synthesis was determined using the Rabbit Reticulocyte Lysate System, Nuclease-Treated from Promega (catalog #L-4960) with slight modifications to the manufacturer's protocol. Compounds were serial diluted in 0.5 mL microcentrifuge tubes by mixing and transferring 50 μL from the highest concentration to 50 μL of water, mixing and transferring 50 μL of this 2-fold dilution to 50 μL of water. This mixing and transferring was repeated so that there are a total of 8 tubes with serial dilutions of compound at 10× the desired screening concentration that are ultimately diluted to 1× by the addition of rabbit reticulocyte luciferase synthesis mixture. Serial dilutions of compounds were added (2.5 μL) to wells in a black round bottom 96-well plate. Water (2.5 μL) was used as a “no inhibitor” control in 4 wells/plate. No RNA control reaction mixture (2 μL; see below) was used as a control in 4 wells/plate for background luminescence. Rabbit reticulocyte luciferase synthesis mixture (22.5 μL; see below) was added to wells with compounds or water mixture and incubated at 30° C. for 90 minutes. Luciferase assay reagent (25 μL) was added with luminescence measured using a BioTek Synergy HTX plate reader. % Inhibition was determined relative to no inhibitor controls.
Rabbit Reticulocyte Luciferase Synthesis Mixture:
• 1,000 μL rabbit reticulocyte lysate • 5.7 μL Luciferase Control RNA (1 μg/μL) • 26 μL complete amino acid mixture • 395 μL water • No RNA Control • 70 μL rabbit reticulocyte lysate • 2 μL complete amino acid mixture • 28 μL water Minimum Inhibitory Concentration (MIC)

Assay [3] relates to E. coli (Ec). The assay is described as follows: Broth microdilution minimum inhibitory concentration (MIC), CLSI. In kind it is cell-based. The note with it: Escherichia coli, growth medium supplemented with sodium bicarbonate, read-out: E. coli + bicarb MIC. The method, then:
A certified BSL-2 laboratory was used for testing. Compounds were evaluated using the broth microdilution minimum inhibitory concentration (MIC) and minimum bactericidal concentration (MBC) assays defined by Clinical and Laboratory Standards Institute (CLSI) in the M26-A guideline against S. aureus (Sa), E. coli (Ec), K. pneumoniae (Kp), A. baumannn (Ab), E. faecalis (Ef) and P. aeruginosa (Pa).
MICs were determined using the Clinical Laboratory and Standards Institute (CLSI) Broth Microdilution Method with slight modification. Clinical and Laboratory Standards Institute (2012). “Methods for dilution antimicrobial susceptibility tests for bacteria that grow aerobically; approved standard, 9th ed. M07-A9 Clinical and Laboratory Standards Institute, Wayne, PA” Serial two-fold dilutions of compounds are prepared in sterile clear round-bottom 96-well plates.
To prepare microdilution trays, two-fold dilutions of antimicrobial agent are prepared in growth medium: Cation-Adjusted Mueller-Hinton Broth (CAMHB), or CAMHB supplemented with sodium bicarbonate (6.25 or 25 mM final concentration prepared from a 1.0M stock solution) or CAMHB supplemented with heat inactivated human serum (Fisher Cat. #BP2657100) 0-50% by adding 200 µL of the highest concentration to be tested (64 μg/mL, for example) in row A, mixing and transferring 100 μL from row A to 100 μL growth medium in row B, then repeating the mixing and transferring through row H of the 96-well plate, discarding the excess […] remaining. This slight modification to the CLSI protocol enables evaluation of MICs for 3 compounds per plate in triplicate, albeit with only 8 compound dilutions (CLSI protocol enables 2 compounds in triplicate with 10 dilutions). Bacterial suspensions are added to a final concentration of 5×10^4 CFU/well by adding 5 μL of a 1:10 dilution of a 0.5 McFarland suspension (1×10^8 CFU/mL) for each bacterium evaluated. Bacterial suspensions were prepared using the growth method described by CLSI. Well-isolated colonies (3-5 from an agar plate) were selected using a sterile loop and used to inoculate a tube containing 4 mL of CAMHB. The cultures are incubated at 35±2° C. until it achieves or exceeds the turbidity of the 0.5 McFarland standard, determined by measuring A600 (usually two to six hours). When growth exceeds a 0.5 McFarland standard, the turbidity is adjusted with broth to be equivalent to a 0.5 McFarland standard.
A general note: Dilution methods test growth across graded concentrations, often in twofold steps.

In the case of `Cc1cc(-n2ccc(NC(=O)N3CCN(C(=O)[C@@](C)(N)CO)CC3)nc2=O)ccc1CN1C[C@@H]2[C@@H](N)[C@@H]2C1` [Compound 1], the values for the IC50 in assay [1] and in assay [2] were less than 0.5 µM and not below 1 µM, respectively. In the same order, the values of `CC(C)(N)C(=O)N1CCN(C(=O)Nc2ccn(-c3cc(CN4C[C@@H]5[C@@H](N)[C@@H]5C4)cc(C(F)(F)F)c3)c(=O)n2)CC1` [Compound 5] are not below 1 µM and not below 1 µM.

As for `CC(C)(N)C(=O)N1CCN(C(=O)Nc2ccn(-c3ccc(CN4C[C@@H]5[C@@H](N)[C@@H]5C4)c(C(F)(F)F)c3)c(=O)n2)CC1` [Compound 6], the IC50 in assay [1] and in assay [2] was not below 1 µM throughout.

On to `CC(C)(N)C(=O)N1CCN(C(=O)Nc2ccn(-c3cc(F)c(CN4C[C@@H]5[C@@H](N)[C@@H]5C4)c(F)c3)c(=O)n2)CC1` [Compound 8], for which the IC50 in assay [1] is not below 1 µM. The MIC in assay [3] was more than 32 µg/mL. The corresponding values for `CC(C)(N)CC(=O)N1CCN(C(=O)Nc2ccn(-c3ccc(CN4C[C@@H]5[C@@H](N)[C@@H]5C4)c(C(F)(F)F)c3)c(=O)n2)CC1` [Compound 9] are not below 1 µM and more than 32 µg/mL. Consider `CCOC(=O)C(c1ccc(-n2ccc(NC(=O)N3CCN(C(=O)C(C)(C)N)CC3)nc2=O)cc1)N1C[C@@H]2[C@@H](N)[C@@H]2C1` (some centres unmarked) [Compound 10], for which the IC50 in assay [1] and in assay [2] was not below 1 µM throughout.

As to `C[C@](N)(CO)C(=O)N1CCN(C(=O)Nc2ccn(-c3ccc(CN4C[C@@H]5[C@@H](N)[C@@H]5C4)c(C(F)(F)F)c3)c(=O)n2)CC1` [Compound 11], the IC50 in assay [1] and in assay [2] was not below 1 µM in each case.

Turning to `CC(N)(C(=O)N1CCN(C(=O)Nc2ccn(-c3ccc(CN4C[C@@H]5[C@@H](N)[C@@H]5C4)cc3)c(=O)n2)CC1)C(F)(F)F` (some centres unmarked) [Compound 15], the IC50 in assay [1] was not below 1 µM. The MIC in assay [3] is more than 32 µg/mL. For `CC(C)(N)C(=O)N1CCN(C(=O)Nc2ccn(-c3ccc(CN4CCC5(CC5N)C4)cc3)c(=O)n2)CC1` (centres unmarked) [Compound 22], the values for the IC50 in assay [1] and in assay [2] were less than 0.5 µM and not below 1 µM, respectively.

For `NC[C@H](N)C(=O)N1CCN(C(=O)Nc2ccn(-c3ccc(CN4C[C@@H]5[C@@H](N)[C@@H]5C4)cc3)c(=O)n2)CC1` [Compound 43], the IC50 in assay [1] and in assay [2] was not below 1 µM each time. Consider `C[C@](N)(CN)C(=O)N1CCN(C(=O)Nc2ccn(-c3ccc(CN4C[C@@H]5[C@@H](N)[C@@H]5C4)cc3)c(=O)n2)CC1` [Compound 44], for which the IC50 in assay [1] and in assay [2] was not below 1 µM each time.

Regarding `CC(C)(N)C(=O)N1CCN(C(=O)Nc2ccn(-c3ccc(CN4CCC5(CCC(N)CC5)CC4)cc3)c(=O)n2)CC1` [Compound 55], the IC50 in assay [1] is less than 0.5 µM; in assay [2], not below 1 µM.

Consider `CC(C)(N)C(=O)N1CCN(C(=O)Nc2ccn(-c3ccc(CN4C[C@@H]5[C@@H](N)[C@@H]5C4)nc3)c(=O)n2)CC1` [Compound 57], for which the IC50 in assay [1] and in assay [2] was not below 1 µM each time. For the compound `CC(C)(N)C(=O)N1CCN(C(=O)Nc2ccn(-c3ccc(CN4CCN5CCNCC5C4)cc3)c(=O)n2)CC1` (centres unmarked) [Compound 78], the IC50 in assay [1] and in assay [2] was not below 1 µM throughout. `CC(C)(N)C(=O)N1CCN(C(=O)Nc2ccn(-c3ccc(CN4C[C@@H]5CN[C@@H]5C4)cc3)c(=O)n2)CC1` [Compound 79]: the IC50 in assay [1] and in assay [2] was not below 1 µM throughout.

For `CC(C)(N)C(=O)N1CCN(C(=O)Nc2ccn(-c3cccc(CCN4C[C@@H]5[C@@H](N)[C@@H]5C4)c3)c(=O)n2)CC1` [Compound 86], the IC50 in assay [1] and in assay [2] was not below 1 µM throughout.

As for `N[C@@H]1[C@H]2CN(CCc3cccc(-n4ccc(NC(=O)N5CCNCC5)nc4=O)c3)C[C@@H]12` [Compound 87], the IC50 in assay [1] and in assay [2] was not below 1 µM each time. Consider `N[C@@H]1[C@H]2CN(CCc3cccc(-n4ccc(NC(=O)N5CCN(C(=O)C6(N)CCC6)CC5)nc4=O)c3)C[C@@H]12` [Compound 88], for which the IC50 in assay [1] and in assay [2] was not below 1 µM in each case. Consider `CC(C)(N)C(=O)N1CCN(C(=O)Nc2ccn(-c3ccc(CCN4C[C@@H]5[C@H](N)[C@@H]5C4)cc3)c(=O)n2)CC1` [Compound 90], for which the IC50 in assay [1] and in assay [2] was not below 1 µM each time.

As for `CC(C)(N)C(=O)N1CCN(C(=O)Nc2ccn(-c3ccc(CCN4CC5(CC(N)C5)C4)cc3)c(=O)n2)CC1` [Compound 92], the IC50 in assay [1] is less than 0.5 µM; in assay [2], not below 1 µM. In the same order, the values of `CC(CN1C[C@@H]2[C@@H](N)[C@@H]2C1)c1ccc(-n2ccc(NC(=O)N3CCN(C(=O)C(C)(C)N)CC3)nc2=O)cc1` (some centres unmarked) [Compound 97] are not below 1 µM and not below 1 µM. The corresponding values for `CC(Cc1ccc(-n2ccc(NC(=O)N3CCN(C(=O)C(C)(C)N)CC3)nc2=O)cc1)N1C[C@@H]2[C@@H](N)[C@@H]2C1` (some centres unmarked) [Compound 98] are not below 1 µM and not below 1 µM.

In the case of `COc1cc(-n2ccc(NC(=O)N3CCN(C(=O)C(C)(C)N)CC3)nc2=O)ccc1CCN1C[C@@H]2[C@H](N)[C@@H]2C1` [Compound 104], the IC50 in assay [1] and in assay [2] was not below 1 µM each time. As to `CC(C)(N)C(=O)N1CCN(C(=O)Nc2ccn(-c3ccc(C(C)(C)CN4C[C@@H]5[C@@H](CN)[C@@H]5C4)cc3)c(=O)n2)CC1` [Compound 118], the IC50 in assay [1] and in assay [2] was not below 1 µM in each case. Consider `CC(C)(N)C(=O)N1CCN(C(=O)Nc2ccn(-c3ccc(C(C)(C)CN4CC5CC5(CN)C4)cc3)c(=O)n2)CC1` (centres unmarked) [Compound 119], for which the IC50 in assay [1] and in assay [2] was not below 1 µM each time. For the compound `CC(C)(N)C(=O)N1CCN(C(=O)Nc2ccn(-c3cccc(CCN4C[C@H]5CNC[C@H]5C4)c3)c(=O)n2)CC1` [Compound 158], in assay [1], the IC50 is not below 1 µM.

As for `CC(C)(N)C(=O)N1CCN(C(=O)Nc2ccn(-c3ccc(CCN4C[C@H]5CNC[C@H]5C4)cc3)c(=O)n2)CC1` [Compound 159], the IC50 in assay [1] and in assay [2] was not below 1 µM each time.
